Measurements as given in US8178506B2, “Oligomeric compounds and compositions for use in modulation of small non-coding RNAs” (Regulus Therapeutics Inc., priority 2003, dated 2012).
In the oligonucleotide strings, read from the 5' end, every base follows the letter of its sugar. An asterisk marks phosphorothioate; unmarked linkages are phosphodiester. Other units and linkages are bracketed, terminal groups are in braces. A string of capitals states the bases alone. e = 2'-O-(2-methoxyethyl) (MOE); [5mC] = 5-methylcytosine; d = 2'-deoxy (DNA)

Test system: T47D cells
Assay: Caspase-3 activity assay (apoptosis) in T47D cells
Settings: for Fold Increase over UTC (caspase-3 activity, apoptosis) / Fold Increase over UTC (caspase activity): T47D cells, 48 hours; for Fold Increase over UTC (caspase-3 activity, apoptosis): 200 nM oligomeric compound; for apoptosis in T47D cells: caspase assay, conclusion from Tables 9-12; for apoptosis in T47D cells / Fold Increase over UTC (caspase activity): 200 nM; for Fold Increase over UTC (caspase activity): relative to untreated control

Substance: 328408 (antisense eT*eA*eG*eA*e[5mC]*dA*dA*dA*dA*dA*d[5mC]*dA*dG*dA*d[5mC]*eT*e[5mC]*eT*eG*eA) [compound 328408]
- Fold Increase over UTC (caspase-3 activity, apoptosis) (experiment of Table 10): 0.9 fold

Substance: SEQ ID NO 488: gapmer of Tables 9-12 having this SEQ ID NO (antisense e[5mC]*eT*eG*eA*e[5mC]*dT*dG*dA*dG*dA*d[5mC]*dT*dG*dT*dT*e[5mC]*eA*e[5mC]*eA*eG)
- apoptosis in T47D cells: induce apoptosis

Substance: 328646 (eG*e[5mC]*eT*eT*eT*dT*dA*dG*dA*dA*d[5mC]*d[5mC]*dA*d[5mC]*dT*eG*e[5mC]*e[5mC]*eT*e[5mC]; antisense) [compound 328646]
- Fold Increase over UTC (caspase-3 activity, apoptosis) (experiment of Table 10): 1.1 fold

Substance: SEQ ID NO 544: gapmer of Tables 9-12 having this SEQ ID NO (eT*e[5mC]*eT*eA*eA*dG*dG*dG*dG*dT*d[5mC]*dA*d[5mC]*dA*dG*eA*eA*eG*eG*eT)
- apoptosis in T47D cells: induce apoptosis

Substance: TGCTGACTGCTCGCCCTTGC (antisense; same sequence listed as MOE 5-10-5 gapmer and as uniform MOE, further chemistry not given here) [ISIS 328641]
- apoptosis in T47D cells: induce apoptosis

Substance: SEQ ID NO 532: gapmer of Tables 9-12 having this SEQ ID NO (antisense e[5mC]*e[5mC]*eA*e[5mC]*eA*dT*dA*dT*dA*d[5mC]*dA*dT*dA*dT*dA*eT*eA*e[5mC]*eG*e[5mC])
- apoptosis in T47D cells: prevent or have a protective effect from apoptosis

Substance: GTGTTCAGAAACCCAGGCCC (antisense; same sequence listed as MOE 5-10-5 gapmer and as uniform MOE, further chemistry not given here) [ISIS 328653]
- apoptosis in T47D cells: induce apoptosis

Substance: TACAATTTGGGAGTCCTGAA (antisense; same sequence listed as MOE 5-10-5 gapmer and as uniform MOE, further chemistry not given here) [ISIS 328689]
- apoptosis in T47D cells: prevent or have a protective effect from apoptosis

Substance: 328658 (eA*eG*eA*eA*eT*dG*dA*dG*dT*dT*dG*dA*d[5mC]*dA*dT*eA*e[5mC]*e[5mC]*eA*eA; antisense) [compound 328658]
- Fold Increase over UTC (caspase-3 activity, apoptosis) (experiment of Table 12): 1.2 fold

Substance: 328700 (eA*eG*e[5mC]*e[5mC]*eA*dG*dT*dG*dT*dG*dT*dA*dA*dA*dA*eT*eG*eA*eG*eA; antisense) [compound 328700]
- Fold Increase over UTC (caspase-3 activity, apoptosis) (experiment of Table 10): 0.8 fold

Substance: 328409 (antisense eG*e[5mC]*eT*eA*eG*dT*dG*dA*d[5mC]*dA*dG*dG*dT*dG*d[5mC]*eA*eG*eA*e[5mC]*eA) [compound 328409]
- Fold Increase over UTC (caspase-3 activity, apoptosis) (experiment of Table 10): 0.7 fold

Substance: 328431 (antisense eA*e[5mC]*e[5mC]*eT*e[5mC]*dT*d[5mC]*dA*dG*dG*dA*dA*dG*dA*d[5mC]*eG*eG*eA*e[5mC]*eT) [compound 328431]
- Fold Increase over UTC (caspase-3 activity, apoptosis) (experiment of Table 10): 0.9 fold

Substance: GACAAGGTGGGAGCGAGTGG (antisense; same sequence listed as MOE 5-10-5 gapmer and as uniform MOE, further chemistry not given here) [ISIS 328644]
- apoptosis in T47D cells: prevent or have a protective effect from apoptosis

Substance: 328650 (eA*eA*eT*e[5mC]*e[5mC]*dA*dT*dT*dG*dA*dA*dG*dA*dG*dG*e[5mC]*eG*eA*eT*eT; antisense) [compound 328650]
- Fold Increase over UTC (caspase-3 activity, apoptosis) (experiment of Table 12): 0.8 fold

Substance: 328420 (antisense eG*e[5mC]*eT*eG*eA*dT*dT*dA*d[5mC]*dG*dA*dA*dA*dG*dA*e[5mC]*eA*eG*eG*eA) [compound 328420]
- Fold Increase over UTC (caspase activity): 1.0

Substance: 328692 (eT*eT*eG*eT*eA*dT*dG*dG*dA*d[5mC]*dA*dT*dT*dT*dA*eA*eA*eT*e[5mC]*eA; antisense) [compound 328692]
- Fold Increase over UTC (caspase activity): 1.2

Substance: TTTCAGGCTCACCTCCCCAG (antisense; same sequence listed as MOE 5-10-5 gapmer and as uniform MOE, further chemistry not given here) [ISIS 328656]
- apoptosis in T47D cells: induce apoptosis

Substance: AATCCATTGAAGAGGCGATT (antisense; same sequence listed as MOE 5-10-5 gapmer and as uniform MOE, further chemistry not given here) [ISIS 328650]
- apoptosis in T47D cells: prevent or have a protective effect from apoptosis

Substance: SEQ ID NO 495: gapmer of Tables 9-12 having this SEQ ID NO (antisense eA*e[5mC]*e[5mC]*eT*eG*dT*dG*dT*dA*dA*d[5mC]*dA*dG*d[5mC]*d[5mC]*eG*eT*eG*eT*eA)
- apoptosis in T47D cells: prevent or have a protective effect from apoptosis

Substance: GCCTCCTTCATATATTCTCA (antisense; same sequence listed as MOE 5-10-5 gapmer and as uniform MOE, further chemistry not given here) [ISIS 328690]
- apoptosis in T47D cells: prevent or have a protective effect from apoptosis

Substance: 328430 (antisense e[5mC]*e[5mC]*eG*eG*e[5mC]*dT*dA*dT*dT*dG*dA*dG*dT*dT*dA*eT*eG*eT*eA*e[5mC]) [compound 328430]
- Fold Increase over UTC (caspase-3 activity, apoptosis) (experiment of Table 12): 1.3 fold

Substance: 328407 (antisense eA*eA*eT*eG*eG*dA*dG*d[5mC]*d[5mC]*dA*dA*dG*dG*dT*dG*e[5mC]*eT*eG*e[5mC]*e[5mC]) [compound 328407]
- Fold Increase over UTC (caspase-3 activity, apoptosis) (experiment of Table 11): 1.2 fold

Substance: TTGTATGGACATTTAAATCA (antisense; same sequence listed as MOE 5-10-5 gapmer and as uniform MOE, further chemistry not given here) [ISIS 328692]
- apoptosis in T47D cells: induce apoptosis

Substance: 328672 (eA*eA*eG*eG*e[5mC]*dT*dT*dT*dT*dT*dG*d[5mC]*dT*d[5mC]*dA*eA*eG*eG*eG*e[5mC]; antisense) [compound 328672]
- Fold Increase over UTC (caspase-3 activity, apoptosis) (experiment of Table 10): 0.9 fold

Substance: SEQ ID NO 483: gapmer of Tables 9-12 having this SEQ ID NO (antisense eA*eG*e[5mC]*eT*eT*dT*dA*dG*d[5mC]*dT*dG*dG*dG*dT*d[5mC]*eA*eG*eG*eA*e[5mC])
- apoptosis in T47D cells: induce apoptosis

Substance: ISIS 328397: 5-10-5 2′-MOE gapmer PS; targets mir-103-1 pri-miRNA (eT*eT*eG*eA*eT*d[5mC]*d[5mC]*dA*dT*dA*dT*dG*d[5mC]*dA*dA*e[5mC]*eA*eA*eG*eG)
- apoptosis in T47D cells: induce apoptosis

Substance: 328412 (antisense eT*eT*eT*eA*e[5mC]*dT*d[5mC]*dA*dT*dA*d[5mC]*d[5mC]*dT*d[5mC]*dG*e[5mC]*eA*eA*e[5mC]*e[5mC]) [compound 328412]
- Fold Increase over UTC (caspase-3 activity, apoptosis) (experiment of Table 12): 1.2 fold

Substance: 328654 (eT*e[5mC]*e[5mC]*eA*eG*dG*dA*dT*dG*d[5mC]*dA*dA*dA*dA*dG*e[5mC]*eA*e[5mC]*eG*eA; antisense) [compound 328654]
- Fold Increase over UTC (caspase-3 activity, apoptosis) (experiment of Table 11): 1.0 fold

Substance: 328648 (eA*e[5mC]*eT*eG*eA*dT*dT*d[5mC]*dA*dA*dG*dA*dG*d[5mC]*dT*eT*eT*eG*eT*eA; antisense) [compound 328648]
- Fold Increase over UTC (caspase activity): 1.1

Substance: SEQ ID NO 510: gapmer of Tables 9-12 having this SEQ ID NO (antisense eG*e[5mC]*e[5mC]*e[5mC]*eT*d[5mC]*dG*dA*d[5mC]*dG*dA*dA*dA*dA*d[5mC]*e[5mC]*eG*eA*e[5mC]*eT)
- apoptosis in T47D cells: prevent or have a protective effect from apoptosis

Substance: 328385 (eA*eG*eT*eG*e[5mC]*dT*dA*dA*dT*dA*d[5mC]*dT*dT*d[5mC]*dT*eT*eT*e[5mC]*eA*eT; antisense) [compound 328385]
- Fold Increase over UTC (caspase-3 activity, apoptosis) (experiment of Table 10): 0.9 fold

Substance: SEQ ID NO 522: gapmer of Tables 9-12 having this SEQ ID NO (antisense eA*eA*eT*eT*eG*dT*dA*dT*dG*dA*d[5mC]*dA*dT*dT*dA*eA*eA*eT*e[5mC]*eA)
- apoptosis in T47D cells: prevent or have a protective effect from apoptosis

Substance: 328411 (antisense eT*eA*e[5mC]*e[5mC]*eT*d[5mC]*dT*dG*d[5mC]*dA*dG*dT*dA*dT*dT*e[5mC]*eT*eA*e[5mC]*eA) [compound 328411]
- Fold Increase over UTC (caspase-3 activity, apoptosis) (experiment of Table 11): 0.8 fold

Substance: 328373 (eG*eG*eG*eA*eA*dG*dG*dA*dT*dT*dG*d[5mC]*d[5mC]*dT*dA*eG*e[5mC]*eA*eG*eT; antisense) [compound 328373]
- Fold Increase over UTC (caspase-3 activity, apoptosis) (experiment of Table 12): 0.9 fold

Substance: 328433 (antisense e[5mC]*e[5mC]*eT*e[5mC]*e[5mC]*dT*dT*dG*dT*dG*dG*dG*d[5mC]*dA*dA*eA*eA*eT*e[5mC]*e[5mC]) [compound 328433]
- Fold Increase over UTC (caspase activity): 1.0

Substance: 328655 (eT*eA*e[5mC]*eA*eA*d[5mC]*dG*dG*d[5mC]*dA*dT*dT*dG*dT*d[5mC]*e[5mC]*eT*eG*eA*eA; antisense) [compound 328655]
- Fold Increase over UTC (caspase-3 activity, apoptosis) (experiment of Table 11): 0.7 fold

Substance: 328696 (e[5mC]*eT*e[5mC]*eT*eA*dG*d[5mC]*dT*d[5mC]*d[5mC]*d[5mC]*dT*d[5mC]*dA*d[5mC]*e[5mC]*eA*eG*eT*eG; antisense) [compound 328696]
- Fold Increase over UTC (caspase-3 activity, apoptosis) (experiment of Table 10): 1.5 fold

Substance: 328637 (eG*eG*eT*eT*e[5mC]*d[5mC]*dT*dA*dA*dT*dT*dA*dA*dA*d[5mC]*eA*eA*e[5mC]*e[5mC]*e[5mC]; antisense) [compound 328637]
- Fold Increase over UTC (caspase-3 activity, apoptosis) (experiment of Table 11): 1.0 fold
